From US12617770B2, “IRAK inhibitor and preparation method therefor and use thereof” (WUHAN CREATERNA SCIENCE AND TECHNOLOGY CO., LTD., priority 2019, dated 2026)

Tests used:
[1] = Plasma protein binding (PPB), equilibrium dialysis, rat plasma; type: in vitro ADME; details: 5 h at 37° C., read-out: Plasma protein binding (Bound %) Rat (converted)
Experimental: The experiment is intended to determine plasma protein binding (PPB) data of the test compounds disclosed herein.
In the PPB experiment, the final administration matrix contained the test compound or a reference compound with a concentration of 1 μM and DMSO with a content of 0.2%.
Collecting samples in initial time: 25 μL of the matrix containing the compound was added into a blank 96-well collecting plate, and the plate was stored at −20° C.
An equilibrated dialysis device was prepared. 100 μL of buffer was added to the receiving side of the equilibrium dialysis plate. Then 100 μL of the administration matrix containing the compound or the reference compound was added into an administration side of the equilibrium dialysis plate. The prepared equilibrium dialysis plate was placed in a 37° C. shaker to be shaken for 5 h at 60 rpm.
Sample was prepared at the end of cultivation (5 h): Preparing sample in the receiving side: 25 μL of sample from a receiving side was taken out and placed in a 96-well sample collecting plate, and 25 μL of a corresponding matrix (blank plasma) was added for mixing: 200 μL of ACN containing an internal standard was added, shaken for 10 minutes at 600 rpm, and centrifuged at 5594 g for 15 min.
Preparing sample in the administration side: 25 μL of the sample containing test compound and reference compound from the administration side was taken out and 25 μL of a blank buffer was added for mixing; 200 μL of ACN containing an internal standard was added, shaken for 10 minutes at 600 rpm, and centrifuged at 5594 g for 15 min.
Preparing sample in initial time: the sample containing test compound and reference compound was re-melted at 37° C. in initial time and then mixed with the corresponding matrix (blank buffer) in the same volume (25 μL); 200 μL of ACN containing an internal standard was added, shaken for 10 minutes at 600 rpm, and centrifuged at 5594 g for 15 min.
After all the samples were centrifuged, 50 μL of a supernatant was taken and added into 50 μL of ultrapure water for mixing, and the samples were sent to liquid chromatography-mass spectrometry.

CYP2C19 = molecular target: T1, CYP2C19 (Homo sapiens, UniProt P33261); assay: CYP450 inhibition in human liver microsomes, CYP2C19; type: in vitro ADME; details: pooled (mixed) human liver microsomes, probe mephenytoin
T1 construct: co-incubated at 7 concentrations with human liver microsomes and five probe substrates; tissue Corning (USA); host or cells: mixed (pooled) human liver microsomes
T1 sequence (P33261 whole entry): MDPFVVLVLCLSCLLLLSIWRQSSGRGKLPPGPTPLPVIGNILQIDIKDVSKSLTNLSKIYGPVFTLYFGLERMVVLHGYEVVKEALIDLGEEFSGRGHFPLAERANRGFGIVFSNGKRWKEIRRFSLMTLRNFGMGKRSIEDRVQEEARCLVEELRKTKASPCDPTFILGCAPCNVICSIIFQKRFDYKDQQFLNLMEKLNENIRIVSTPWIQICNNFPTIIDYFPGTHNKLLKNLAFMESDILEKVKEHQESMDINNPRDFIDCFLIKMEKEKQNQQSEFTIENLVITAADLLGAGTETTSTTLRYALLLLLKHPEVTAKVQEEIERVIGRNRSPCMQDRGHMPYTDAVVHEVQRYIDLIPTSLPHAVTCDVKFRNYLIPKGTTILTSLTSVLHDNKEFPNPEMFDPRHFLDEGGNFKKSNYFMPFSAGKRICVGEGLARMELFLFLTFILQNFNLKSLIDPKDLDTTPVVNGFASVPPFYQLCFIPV
Experimental: This study was intended to investigate the inhibitory effect of the test compounds on 5 major enzymes in human P450 superfamily, CYP1A2, 2C9, 2C19, 2D6 and 3A4-M. The mixed human liver microsomes used in this assay were purchased from Corning (USA). The test compound (compound 14) was co-incubated at 7 concentrations with human liver microsomes and five probe substrates (phenacetin for CYP1a2, diclofenac for CYP2C9, mephenytoin for CYP2C19, dextromethorphan for CYP2D6, midazolam for CYP3A4-M, mixed). The reaction was initiated by adding coenzyme NADPH, and terminated by adding acetonitrile containing internal standard. After the proteins were precipitated, the supernatant was centrifuged. The characteristic metabolites in the supernatant (acetaminophen for CYP1A2, 4-hydroxydiclofenac for CYP2C9, 4-hydroxymephenytoin for CYP2C19, dextrorphan for CYP2D6, 1-hydroxymidazolam for CYP3A4-M) were analyzed by LC-MS/MS. The influence of the test compounds on production of the characteristic metabolites was finally analyzed on the basis of the data obtained. A selective inhibitor (ketoconazole for CYP3A4-M) may be used as positive control. All samples were tested in duplicate.

human IRAK1 = molecular target: T2, human IRAK1 (Homo sapiens, UniProt P51617); assay: IRAK1 MSA (Mobility-Shift Assay) at Km concentration of ATP; type: biochemical; details: for IC50: read-out: IRAKI IC50; for IRAKI IC50 (nM)/ IRAK4 IC50 (nM): selectivity ratio IRAK1 to IRAK4
T2 construct: purchased Cama (so in the source)
T2 sequence (P51617 whole entry): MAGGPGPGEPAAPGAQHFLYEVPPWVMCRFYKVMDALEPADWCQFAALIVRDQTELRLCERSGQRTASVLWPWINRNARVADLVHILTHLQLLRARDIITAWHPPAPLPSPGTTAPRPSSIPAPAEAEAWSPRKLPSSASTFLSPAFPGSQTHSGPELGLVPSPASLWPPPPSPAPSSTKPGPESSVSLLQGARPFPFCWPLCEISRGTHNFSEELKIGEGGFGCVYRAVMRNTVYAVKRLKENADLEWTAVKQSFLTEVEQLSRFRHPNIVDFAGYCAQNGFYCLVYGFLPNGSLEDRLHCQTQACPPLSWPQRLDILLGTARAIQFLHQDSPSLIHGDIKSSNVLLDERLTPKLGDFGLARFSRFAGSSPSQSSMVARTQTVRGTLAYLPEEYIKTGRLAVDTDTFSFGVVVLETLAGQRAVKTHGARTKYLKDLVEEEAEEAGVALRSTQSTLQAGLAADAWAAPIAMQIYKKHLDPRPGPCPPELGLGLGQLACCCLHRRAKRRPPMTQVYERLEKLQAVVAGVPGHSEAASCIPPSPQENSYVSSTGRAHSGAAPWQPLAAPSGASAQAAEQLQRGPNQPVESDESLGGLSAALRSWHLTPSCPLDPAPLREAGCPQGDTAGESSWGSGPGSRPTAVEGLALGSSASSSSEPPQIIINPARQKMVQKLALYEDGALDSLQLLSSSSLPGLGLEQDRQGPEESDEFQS
Experimental: This assay evaluated the inhibitory effect of the compounds on human IRAK1 activity with the same materials as in Test Example 1.
A recombinant fusion protein of N-terminal GST (glutathione-S-transferase) and human IRAK1 was used as enzyme (GST-IRAK1, kinase IRAK1, Cama) at a final concentration of 3 nM: ATP (Sigma) was at a final concentration of 97 μM; the substrates used for the kinase reaction were 5-FAM (5-carboxyfluorescein)-labeled polypeptide (5-FAM-[…]-COOH) and substrate peptide FAM-P8 (GL Biochem) at final concentrations of 5 μM.
In this assay, 500 μM stock solutions of the compounds were prepared in 100% DMSO, and serially 4-fold diluted to the 10th concentration gradient with 100% DMSO, followed by a 10-fold dilution in the compound buffer (50 mM HEPES, pH 7.5, 0.00015% Brij-35) to give intermediate dilutions of the compounds at a final concentration of 10 μM−0.04 nM containing 10% DMSO. 5 μL of the intermediate dilution was transferred into a black 384-well plate.
IRAK1 was diluted to 7.5 nM in the kinase buffer (50 mM HEPES, pH 7.5, 0.00015% Brij-35, 2 mM DTT). 10 μL of the IRAK1 dilution was transferred to the 384-well plate and co-incubated with the compound for 10-15 min.
The substrate and ATP were diluted to 12.5 μM and 242.5 μM with reaction buffer (50 mM HEPES, pH 7.5, 0.00015% Brij-35, 10 mM MgCl2), respectively. 10 μL of the dilution was transferred to a 384-well plate and incubated at 28° C. for 1 h. The reaction was terminated by adding 25 μL of 50 mM EDTA to the 384-well plate.
The inhibition of IRAK1 by the compounds was calculated by measuring the rate of phosphorylated substrate using a Caliper EZ Reader (PerkinElmer) and the IC50 was calculated by XL-fit software.

TNF-α release = assay: Inhibition of cytokine TNF-α release in LPS-induced Balb/c female mice; type: in vivo; details: oral gavage 16 h before LPS (i.p. 0.2 mg/kg); serum 1.5 h after stimulation
Experimental: Female Balb/c mice were randomized into groups, each containing 4 mice, including a control+vehicle group, a model+vehicle group, a model+reference group and model+compound groups. The control animals received an intraperitoneal injection of normal saline (10 mL/kg) and the model animals received LPS stimulation (Sigma CAT #L2630, i.p., 10 mL/kg, 0.2 mg/kg). To the test compounds, DMSO, Solutol and 10 mM PBS were sequentially added to prepare a solution or suspension of required concentration for administration. For the vehicle, DMSO, Solutol and 10 mM PBS were mixed in a volume ratio of 5:15:80. The animals were administered through oral gavage (10 mL/kg) 16 h before LPS (or saline) stimulation at predetermined doses, and euthanized with CO2 at 1.5 h after the stimulation for cardiac blood collection. The whole blood was not anticoagulated, incubated in wet ice for 1.5 h, and centrifuged at 2000×g at 4° C. for 10 min to separate the serum. Serum was frozen at −80° C. for TNF-α assay. Quantification of TNF-α was done by TNF-α ELISA kit according to the manufacturer's instructions. The readings of absorbance at A450 were measured with a microplate reader SpectraMax i3x (Molecular Device) for calculating the inhibition of the compounds, and IC50 was calculated with GraphPad Prism 7.0 software. […] In particular, some exemplary compound inhibition rate values are as follows: […]

| fraction unbound at 5 h, 1 μM [1] | IC50 (CYP2C19) [µM] | IC50 (human IRAK1) [µM] | IRAKI IC50 (nM)/ IRAK4 IC50 (nM) (human IRAK1) | Compound | Inhibition rate (%) of TNF-α (TNF-α release) [%] |
| --- | --- | --- | --- | --- | --- |
| 0.153 | > 30 | 4.04 | 673.2 | COc1cc2nn([C@H]3CC[C@](C)(O)CC3)cc2cc1NC(=O)c1cccc(C)[n+]1[O-] [Compound 001, 2-((2-((1r,4r)-4-hydroxy-4-methylcyclohexyl)-6-methoxy-2H-indazol-5-yl)carbamoyl)-6-methylpyridine 1-oxide] | 74.00 |
| 0.194 | > 30 | 2.99 | 130.1 | COc1cc2nn(CCC(C)(C)O)cc2cc1NC(=O)c1cccc(C)[n+]1[O-] [Compound 163, 2-((2-(3-hydroxy-3-methylbutyl)-6-methoxy-2H-indazol-5-yl)carbamoyl)-6-methylpyridine 1-oxide] | 71.56 |
